Data from patent publication US7932262B2 (Novartis AG, priority 2006, dated 2011).

Experiments:
PDK1 kinase = target: T1, PDK1 kinase (Homo sapiens, UniProt O15530); assay: PDK1 Kinase Alpha Screen Assay; format: biochemical; conditions: read-out: PDK1 IC50
T1 sequence (O15530 1-556): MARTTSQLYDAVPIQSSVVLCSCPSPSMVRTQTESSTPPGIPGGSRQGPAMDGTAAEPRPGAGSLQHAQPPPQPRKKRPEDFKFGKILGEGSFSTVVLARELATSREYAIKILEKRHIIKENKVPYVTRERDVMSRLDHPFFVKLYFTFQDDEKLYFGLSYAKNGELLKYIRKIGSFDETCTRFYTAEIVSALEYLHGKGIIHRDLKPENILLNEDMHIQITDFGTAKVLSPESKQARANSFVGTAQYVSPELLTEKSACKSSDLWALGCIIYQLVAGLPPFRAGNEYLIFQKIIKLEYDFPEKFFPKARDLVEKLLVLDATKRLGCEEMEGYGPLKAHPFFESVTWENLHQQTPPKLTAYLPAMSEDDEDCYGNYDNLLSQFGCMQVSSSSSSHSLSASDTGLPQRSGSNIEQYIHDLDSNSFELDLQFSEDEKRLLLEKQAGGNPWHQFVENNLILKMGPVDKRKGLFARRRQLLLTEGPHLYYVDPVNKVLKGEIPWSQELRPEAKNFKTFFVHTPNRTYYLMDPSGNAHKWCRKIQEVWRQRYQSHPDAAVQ
Method in brief: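 Compound in DMSO added to PDK1-4 peptide; PDK1/ATP mix starts reaction (final 50 nM peptide, 10 uM ATP). Runs 3-18 hours, stopped with 90 mM EDTA buffer. Antibody/bead mix added, developed overnight at room temperature, then AlphaScreen signal read.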

PC-3 cells = assay: Cell Proliferation Assay (Cell Titer Glo), PC-3 cell line; format: cell-based; conditions: Homo sapiens, PC-3, PC3 cells; read-out: CPEC50 PC3
Method in brief: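 PC-3 cells, 1000 cells/well, left to adhere 3-5 h, then exposed for 3 days at 37° C to compounds as 1:3 serial dilutions from 500× DMSO stocks diluted in growth medium. Medium then replaced with fresh medium and viability read by Cell Titer Glo luminescence.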

IC50 (PDK1 kinase) [µM]	EC50 (PC-3 cells) [µM]	Structure (SMILES)
< 5	< 5	CN(Cc1cncc(-c2cccc3cnc(Nc4ccc(S(N)(=O)=O)cc4)nc23)c1)C1CCOCC1 [Compound 950, 4-(8-(5-((methyl(tetrahydro-2H-pyran-4-yl)amino)methyl)pyridin-3-yl)quinazolin-2-ylamino)benzenesulfonamide]
< 5	< 5	CN(C)[C@@H]1CCN(c2ccc(-c3cccc4cnc(Nc5ccc(S(N)(=O)=O)cc5)nc34)cn2)C1 [Compound 951, (R)-4-(8-(6-(3-(dimethylamino)pyrrolidin-1-yl)pyridin-3-yl)quinazolin-2-ylamino)benzenesulfonamide]
< 5	< 5	CN(C)[C@H]1CCN(c2ccc(-c3cccc4cnc(Nc5ccc(S(N)(=O)=O)cc5)nc34)cn2)C1 [Compound 952, (S)-4-(8-(6-(3-(dimethylamino)pyrrolidin-1-yl)pyridin-3-yl)quinazolin-2-ylamino)benzenesulfonamide]
< 5	< 5	NS(=O)(=O)c1ccc(Nc2ncc3cccc(-c4ccc(NCCN5CCOCC5)nc4)c3n2)cc1 [Compound 953, 4-(8-(6-(2-morpholinoethylamino)pyridin-3-yl)quinazolin-2-ylamino)benzenesulfonamide]
< 5	< 5	CCN(CC)CCNc1ccc(-c2cccc3cnc(Nc4ccc(S(N)(=O)=O)cc4)nc23)cn1 [Compound 954, 4-(8-(6-(2-(diethylamino)ethylamino)pyridin-3-yl)quinazolin-2-ylamino)benzenesulfonamide]
< 5	< 5	CN1CCC(Nc2ccc(-c3cccc4cnc(Nc5ccc(S(N)(=O)=O)cc5)nc34)cn2)CC1 [Compound 955, 4-(8-(6-(1-methylpiperidin-4-ylamino)pyridin-3-yl)quinazolin-2-ylamino)benzenesulfonamide]
< 5	< 5	CC(C)N1CCN(c2ccc(-c3cccc4cnc(Nc5ccc(S(N)(=O)=O)cc5)nc34)cn2)CC1 [Compound 956, 4-(8-(6-(4-isopropylpiperazin-1-yl)pyridin-3-yl)quinazolin-2-ylamino)benzenesulfonamide]
5 to 10	5 to 10	NS(=O)(=O)c1ccc(Nc2ncc3cccc(-c4cncc(C(=O)O)c4)c3n2)cc1 [Compound 962, 5-(2-(4-sulfamoylphenylamino)quinazolin-8-yl)nicotinic acid]
< 5	< 5	NS(=O)(=O)c1ccc(Nc2ncc3cc(C(F)(F)F)cc(-c4ccc(NCCN5CCCC5)nc4)c3n2)cc1 [Compound 963, 4-(8-(6-(2-(pyrrolidin-1-yl)ethylamino)pyridin-3-yl)-6-(trifluoromethyl)quinazolin-2-ylamino)benzenesulfonamide]
5 to 10	< 5	CN1CCN(c2ccc(-c3cc(C(F)(F)F)cc4cnc(Nc5ccc(S(N)(=O)=O)cc5)nc34)cn2)CC1 [Compound 964, 4-(8-(6-(4-methylpiperazin-1-yl)pyridin-3-yl)-6-(trifluoromethyl)quinazolin-2-ylamino)benzenesulfonamide]
< 5	< 5	NS(=O)(=O)c1ccc(Nc2ncc3cc(C(F)(F)F)cc(-c4ccc(N5CCNC(=O)C5)nc4)c3n2)cc1 [Compound 965, 4-(8-(6-(3-oxopiperazin-1-yl)pyridin-3-yl)-6-(trifluoromethyl)quinazolin-2-ylamino)benzenesulfonamide]
< 5	< 5	CC(C)NCCCNc1ccc(-c2cccc3cnc(Nc4ccc(S(N)(=O)=O)cc4)nc23)cn1 [Compound 971, 4-(8-(6-(3-(isopropylamino)propylamino)pyridin-3-yl)quinazolin-2-ylamino)benzenesulfonamide]
< 5	< 5	NS(=O)(=O)c1ccc(Nc2ncc3cccc(-c4ccc(NCCCN5CCCC5)nc4)c3n2)cc1 [Compound 972, 4-(8-(6-(3-(pyrrolidin-1-yl)propylamino)pyridin-3-yl)quinazolin-2-ylamino)benzenesulfonamide]
< 5	< 5	CCN1CCC[C@H]1CNc1ccc(-c2cccc3cnc(Nc4ccc(S(N)(=O)=O)cc4)nc23)cn1 [Compound 973, (S)-4-(8-(6-((1-ethylpyrrolidin-2-yl)methyamino)-pyridin-3-yl)quinazolin-2-ylamino)benzenesulfonamide]
< 5	< 5	CCN1CCC[C@@H]1CNc1ccc(-c2cccc3cnc(Nc4ccc(S(N)(=O)=O)cc4)nc23)cn1 [Compound 974, (R)-4-(8-(6-((1-ethylpyrrolidin-2-yl)methylamino)pyridin-3-yl)quinazolin-2-ylamino)benzenesulfonamide]
< 5	< 5	CN1CCC(CNc2ccc(-c3cccc4cnc(Nc5ccc(S(N)(=O)=O)cc5)nc34)cn2)CC1 [Compound 975, 4-(8-(6-((1-methylpiperidin-4-yl)methylamino)pyridin-3-yl)quinazolin-2-ylamino)benzenesulfonamide]
< 5	5 to 10	CN(C)[C@@H]1CCN(C(=O)c2cncc(-c3cccc4cnc(Nc5ccc(S(N)(=O)=O)cc5)nc34)c2)C1 [Compound 976, (R)-4-(8-(5-(3-(dimethylamino)pyrrolidine-1-carbonyl)pyridin-3-yl)quinazolin-2-ylamino)benzenesulfonamide]
< 5	5 to 10	CN1CCN(C(=O)c2cncc(-c3cccc4cnc(Nc5ccc(S(N)(=O)=O)cc5)nc34)c2)CC1 [Compound 977, 4-(8-(5-(4-methylpiperazine-1-carbonyl)pyridin-3-yl)quinazolin-2-ylamino)benzenesulfonamide]
< 5	5 to 10	CN(C)[C@H]1CCN(C(=O)c2cncc(-c3cccc4cnc(Nc5ccc(S(N)(=O)=O)cc5)nc34)c2)C1 [Compound 978, (S)-4-(8-(5-(3-(dimethylamino)pyrrolidine-1-carbonyl)pyridin-3-yl)quinazolin-2-ylamino)benzenesulfonamide]
< 5	5 to 10	NS(=O)(=O)c1ccc(Nc2ncc3cccc(-c4cncc(C(=O)NCCN5CCCC5)c4)c3n2)cc1 [Compound 979, N-(2-(pyrrolidin-1-yl)ethyl)-5-(2-(4-sulfamoylphenylamino)quinazolin-8-yl)nicotinamide]
< 5	5 to 10	CN(C)C1CCN(C(=O)c2cncc(-c3cccc4cnc(Nc5ccc(S(N)(=O)=O)cc5)nc34)c2)CC1 [Compound 980, 4-(8-(5-(4-(dimethylamino)piperidine-1-carbonyl)pyridin-3-yl)quinazolin-2-ylamino)benzenesulfonamide]
< 5	5 to 10	CN1CCC(NC(=O)c2cncc(-c3cccc4cnc(Nc5ccc(S(N)(=O)=O)cc5)nc34)c2)CC1 [Compound 981, N-(1-methylpiperidin-4-yl)-5-(2-(4-sulfamoylphenylamino)quinazolin-8-yl)nicotinamide]
< 5	5 to 10	CN1CCC(CNC(=O)c2cncc(-c3cccc4cnc(Nc5ccc(S(N)(=O)=O)cc5)nc34)c2)CC1 [Compound 982, N-((1-methylpiperidin-4-yl)methyl)-5-(2-(4-sulfamoylphenylamino)quinazolin-8-yl)nicotinamide]
< 5	5 to 10	NS(=O)(=O)c1ccc(Nc2ncc3cccc(-c4cncc(C(=O)N5CCNC(=O)C5)c4)c3n2)cc1 [Compound 983, 4-(8-(5-(3-oxopiperazine-1-carbonyl)pyridin-3-yl)quinazolin-2-ylamino)benzenesulfonamide]
< 5	5 to 10	NS(=O)(=O)c1ccc(Nc2ncc3cccc(-c4cncc(C(=O)N5CCOCC5)c4)c3n2)cc1 [Compound 984, 4-(8-(5-(morpholine-4-carbonyl)pyridin-3-yl)quinazolin-2-ylamino)benzenesulfonamide]
< 5	< 5	CN1CCN(c2ccc(-c3cccc4cnc(Nc5ccc(S(N)(=O)=O)cc5)nc34)cc2)CC1 [Compound 985, 4-(8-(4-(4-methylpiperazin-1-yl)phenyl)quinazolin-2-ylamino)benzenesulfonamide]
< 5	< 5	NS(=O)(=O)c1ccc(Nc2ncc3cccc(-c4ccc(CN5CCOCC5)cc4)c3n2)cc1 [Compound 986, 4-(8-(4-(mopholinomethyl)phenyl)quinazolin-2-ylamino)benzenesulfonamide]
< 5	< 5	CC(C)NC(=O)c1ccc(Nc2ncc3cccc(-c4ccc(NCCN5CCCC5)nc4)c3n2)cc1 [Compound 993, N-isopropyl-4-(8-(6-(2-(pyrrolidin-1-yl)ethylamino)pyridin-3-yl)quinazolin-2-ylamino)benzamide]

Structure (SMILES)	IC50 (PDK1 kinase) [µM]	EC50 (PC-3 cells) [µM]
NS(=O)(=O)c1ccc(Nc2ncc3cccc(C4=CCNCC4)c3n2)cc1 [Compound 987, 4-(8-(1.2,3,6-tetrahydropyridin-4-yl)quinazolin-2-ylamino)benzenesulfonamide]	< 5	< 5
